ChEMBL document CHEMBL3244311, “Neuroleptics related to butaclamol. Synthesis and some psychopharmacological effects of a series of 3-aryl analogues” (J Med Chem, 1978)

Key:
Rattus norvegicus [1] = test: Antipsychotic activity in ip dosed Sprague-Dawley rat assessed as inhibition of amphetamine-induced stereotyped-behavior administered 15 mins post amphetamine-challenge measured for 4 hrs; format: functional; conditions: for minimal effective dose: read-out: MED
Rattus norvegicus [2] = test: Antipsychotic activity in ip dosed Sprague-Dawley rat assessed as suppression of conditioned avoidance response after 30 mins; format: functional
Rattus norvegicus [3] = test: Antipsychotic activity in ip dosed Sprague-Dawley rat assessed as protection against epinephrine-induced mortality administered 1 hr prior to epinephrine-challenge measured up to 24 hrs; format: functional
Rattus norvegicus [4] = species: Rattus norvegicus; test: Toxicity in Sprague-Dawley rat assessed as catalepsy at 10 times MED after 1 to 24 hrs relative to control; format: organism-based; conditions: in vivo
Rattus norvegicus [5] = species: Rattus norvegicus; test: Toxicity in Sprague-Dawley rat assessed as catalepsy at 10 times MED assessed as time required to reach peak effect; format: organism-based; conditions: in vivo
Rattus norvegicus [6] = test: Relative adrenolytic potency, ratio of ED50 for protection against epinephrine-induced mortality in ip dosed Sprague-Dawley rat to MED for suppression of conditioned avoidance response in ip dosed Sprague-Dawley rat; format: functional
Rattus norvegicus [7] = test: Ratio of MED for inhibition of amphetamine-induced stereotyped-behavior in ip dosed Sprague-Dawley rat to ED50 for suppression of conditioned avoidance response in ip dosed Sprague-Dawley rat; format: functional

Compound | inhibition (Rattus norvegicus [1]) | minimal effective dose (Rattus norvegicus [1]) | ED50 (Rattus norvegicus [2]; 0.5 h) | ED50 (Rattus norvegicus [3]) | %max (Rattus norvegicus [4]) | Time (Rattus norvegicus [5]) | Ratio (Rattus norvegicus [6]) | Ratio (Rattus norvegicus [7]) | MED (Rattus norvegicus [1]) | ED50 (Rattus norvegicus [2])
Cl.O[C@]1(c2ccccc2)CCN2C[C@@H]3c4ccccc4CCc4cccc(c43)[C@H]2C1 (racemic) | Dose-dependent effect | 2.5 mg/kg | 3 mg/kg | 5.5 mg/kg | 32% | 6 h | 2.2 | – | – | –
Cc1ccccc1[C@@]1(O)CCN2C[C@@H]3c4ccccc4CCc4cccc(c43)[C@H]2C1.Cl (racemic) | Dose-dependent effect | 1.25 mg/kg | 3.3 mg/kg | 6.4 mg/kg | 61% | 4 h | 5.1 | 0.38 | – | –
Cl.O[C@]1(Cc2ccccc2)CCN2C[C@@H]3c4ccccc4CCc4cccc(c43)[C@H]2C1 (racemic) | Dose-dependent effect | > 20 mg/kg | – | > 40 mg/kg | – | – | – | – | – | –
COc1ccccc1[C@@]1(O)CCN2C[C@@H]3c4ccccc4CCc4cccc(c43)[C@H]2C1.Cl (racemic) | Dose-dependent effect | 0.63 mg/kg | 0.92 mg/kg | 4 mg/kg | 89% | 4 h | 6.3 | – | – | –
COc1cccc([C@@]2(O)CCN3C[C@@H]4c5ccccc5CCc5cccc(c54)[C@H]3C2)c1.Cl (racemic) | Dose-dependent effect | 1.25 mg/kg | 1.4 mg/kg | 2.7 mg/kg | 83% | 6 h | 2.2 | – | – | –
COc1ccc([C@@]2(O)CCN3C[C@@H]4c5ccccc5CCc5cccc(c54)[C@H]3C2)cc1.Cl (racemic) | Dose-dependent effect | 2.5 mg/kg | 5.8 mg/kg | 13.2 mg/kg | 83% | 6 h | 5.3 | 0.43 | – | –
COc1ccc([C@@]2(O)CCN3C[C@@H]4c5ccccc5CCc5cccc(c54)[C@H]3C2)cc1OC.Cl (racemic) | Dose-dependent effect | 5 mg/kg | 6 mg/kg | 1.1 mg/kg | 100% | 4 h | 0.22 | – | – | –
COc1ccc([C@@]2(O)CCN3C[C@@H]4c5ccccc5CCc5cccc(c54)[C@H]3C2)c(OC)c1.Cl (racemic) | Dose-dependent effect | 10 mg/kg | 16 mg/kg | 18 mg/kg | 44% | 6 h | 1.8 | – | – | –
Cl.O[C@]1(c2ccccc2Cl)CCN2C[C@@H]3c4ccccc4CCc4cccc(c43)[C@H]2C1 (racemic) | Dose-dependent effect | 2.5 mg/kg | 3.3 mg/kg | 11 mg/kg | 100% | 4 h | 4.4 | – | – | –
Cl.O[C@]1(c2cccc(F)c2)CCN2C[C@@H]3c4ccccc4CCc4cccc(c43)[C@H]2C1 (racemic) | Dose-dependent effect | 5 mg/kg | 7 mg/kg | 14.3 mg/kg | 100% | 4 h | 2.9 | – | – | –
Cl.O[C@]1(c2ccc(Br)cc2)CCN2C[C@@H]3c4ccccc4CCc4cccc(c43)[C@H]2C1 (racemic) | Dose-dependent effect | 20 mg/kg | 14 mg/kg | 6.9 mg/kg | 72% | 4 h | 0.35 | – | – | –
Cl.O[C@]1(c2ccccc2C(F)(F)F)CCN2C[C@@H]3c4ccccc4CCc4cccc(c43)[C@H]2C1 (racemic) | Dose-dependent effect | 10 mg/kg | 22.2 mg/kg | > 20 mg/kg | 100% | 6 h | >2 | 0.45 | – | –
Cl.O[C@]1(c2cccs2)CCN2C[C@@H]3c4ccccc4CCc4cccc(c43)[C@H]2C1 (racemic) | Dose-dependent effect | 2.5 mg/kg | 5.6 mg/kg | 22 mg/kg | 100% | 6 h | 8.8 | 0.45 | – | –
Cl.O[C@]1(c2ccsc2)CCN2C[C@@H]3c4ccccc4CCc4cccc(c43)[C@H]2C1 (racemic) | Dose-dependent effect | 5 mg/kg | 8 mg/kg | 90 mg/kg | 93% | 6 h | 18 | – | – | –
Cl.O[C@]1(c2ccco2)CCN2C[C@@H]3c4ccccc4CCc4cccc(c43)[C@H]2C1 (racemic) | Dose-dependent effect | 5 mg/kg | 6.7 mg/kg | 82 mg/kg | 83% | 4 h | 16.4 | – | – | –
Cl.O[C@]1(c2cccnc2)CCN2C[C@@H]3c4ccccc4CCc4cccc(c43)[C@H]2C1 (racemic) | Dose-dependent effect | 5 mg/kg | 1 mg/kg | 4.7 mg/kg | 94% | 4 h | 0.94 | – | – | –
CN(C)CCCN1c2ccccc2Sc2ccc(Cl)cc21 [CHLORPROMAZINE] | – | – | – | – | – | – | – | 1 | – | –
OCCN1CCN(CCCN2c3ccccc3Sc3ccc(C(F)(F)F)cc32)CC1 [FLUPHENAZINE] | – | – | – | – | – | – | – | 1 | – | –
O=C(CCCN1CCC(O)(c2ccc(Cl)cc2)CC1)c1ccc(F)cc1 [HALOPERIDOL] | – | – | – | – | – | – | – | 1 | – | –
CSc1ccc2c(c1)N(CCC1CCCCN1C)c1ccccc1S2 (stereo unspecified) [THIORIDAZINE] | – | – | – | – | – | – | – | 1 | – | –
Butaclamol | – | – | – | 15 mg/kg | – | – | 24 | 1 | 0.63 mg/kg | 0.64 mg/kg
